Measured values as given in ChEMBL document CHEMBL3286290, “In vitro screening of pentamidine analogs against bacterial and fungal strains” (Bioorg Med Chem Lett, 2014).
Converted amounts (≈) assume the structure as drawn. Where a name gives a salt, the structure may show the parent alone.

Experiments:
Format in all cases: functional
[1] = test system: Micrococcus luteus; experiment: Antibacterial activity against Micrococcus luteus ATCC 9341 assessed as growth inhibition by M7-A6 method
[2] = test system: Micrococcus luteus; experiment: Antibacterial activity against Micrococcus luteus ATCC 10240 assessed as growth inhibition by M7-A6 method
[3] = test system: Bacillus subtilis; experiment: Antibacterial activity against Bacillus subtilis ATCC 6633 assessed as growth inhibition by M7-A6 method
[4] = test system: Bacillus cereus; experiment: Antibacterial activity against Bacillus cereus ATCC 11778 assessed as growth inhibition by M7-A6 method
[5] = test system: Staphylococcus aureus; experiment: Antibacterial activity against Staphylococcus aureus ATCC 6538 assessed as growth inhibition by M7-A6 method
[6] = test system: Staphylococcus aureus; experiment: Antibacterial activity against Staphylococcus aureus ATCC 6538P assessed as growth inhibition by M7-A6 method
[7] = test system: Escherichia coli; experiment: Antibacterial activity against Escherichia coli ATCC 8739 assessed as growth inhibition by M7-A6 method
[8] = test system: Escherichia coli; experiment: Antibacterial activity against Escherichia coli ATCC 10536 assessed as growth inhibition by M7-A6 method
[9] = test system: Pseudomonas aeruginosa; experiment: Antibacterial activity against Pseudomonas aeruginosa ATCC 15442 assessed as growth inhibition by M7-A6 method
[10] = test system: Pseudomonas aeruginosa; experiment: Antibacterial activity against Pseudomonas aeruginosa ATCC 9027 assessed as growth inhibition by M7-A6 method
[11] = test system: Candida albicans; experiment: Antifungal activity against Candida albicans ATCC 10231 assessed as growth inhibition by M7-A6 method
[12] = test system: Candida albicans; experiment: Antifungal activity against Candida albicans ATCC 2091 assessed as growth inhibition by M7-A6 method
[13] = test system: Candida parapsilosis; experiment: Antifungal activity against Candida parapsilosis ATCC 22019 assessed as growth inhibition by M7-A6 method; settings: Lodderomyces parapsilosis
[14] = test system: Aspergillus brasiliensis; experiment: Antifungal activity against Aspergillus brasiliensis ATCC 16404 assessed as growth inhibition by M7-A6 method
[15] = Antifungal activity against Zygosaccharomyces rouxii ATCC 28253 assessed as growth inhibition by M7-A6 method
[16] = test system: Saccharomyces cerevisiae; experiment: Antifungal activity against Saccharomyces cerevisiae ATCC 9763 assessed as growth inhibition by M7-A6 method
[17] = test system: Staphylococcus aureus; experiment: Antibacterial activity against erythromycin, amikacin, clindamycin, ciprofloxacin, methicillin-resistant Staphylococcus aureus 15K/11 assessed as growth inhibition by M7-A6 method
[18] = test system: Staphylococcus aureus; experiment: Antibacterial activity against penicillin, erythromycin, amikacin, clindamycin, ciprofloxacin, methicillin-resistant Staphylococcus aureus 495/11 assessed as growth inhibition by M7-A6 method
[19] = test system: Staphylococcus aureus; experiment: Antibacterial activity against penicillin, erythromycin, amikacin, clindamycin, ciprofloxacin, methicillin-resistant Staphylococcus aureus 572/12 assessed as growth inhibition by M7-A6 method
[20] = test system: Staphylococcus aureus; experiment: Antibacterial activity against penicillin, erythromycin, clindamycin, ciprofloxacin, methicillin-resistant Staphylococcus aureus 19K/11 assessed as growth inhibition by M7-A6 method
[21] = test system: Staphylococcus aureus; experiment: Antibacterial activity against penicillin, erythromycin, amikacin, clindamycin, ciprofloxacin, methicillin-resistant Staphylococcus aureus 573/12 assessed as growth inhibition by M7-A6 method

SMILES	MIC [1] [µM]	MIC [2] [µM]	MIC [3] [µM]	MIC [4] [µM]	MIC [5] [µM]	MIC [6] [µM]	MIC [7] [µM]	MIC [8] [µM]	MIC [9] [µM]	MIC [10] [µM]	MIC [11] [µM]	MIC [12] [µM]	MIC [13] [µM]	MIC [14] [µM]	MIC [15] [µM]	MIC [16] [µM]	further results
COc1cc(C(=N)N)ccc1OCCN(CCOc1ccc(C(=N)N)cc1OC)S(=O)(=O)c1ccc(NC(C)=O)cc1	72 (≈ 43.1 µg/mL)	89 (≈ 53.3 µg/mL)	720 (≈ 431 µg/mL)	72 (≈ 43.1 µg/mL)	140 (≈ 83.8 µg/mL)	360 (≈ 216 µg/mL)	3580 (≈ 2140 µg/mL)	3580 (≈ 2140 µg/mL)	7160 (≈ 4290 µg/mL)	7160 (≈ 4290 µg/mL)	180 (≈ 108 µg/mL)	1430 (≈ 856 µg/mL)	360 (≈ 216 µg/mL)	7160 (≈ 4290 µg/mL)	1430 (≈ 856 µg/mL)	1430 (≈ 856 µg/mL)	
N=C(N)c1ccc(OCCCCCOc2ccc(C(=N)N)cc2)cc1 [PENTAMIDINE HYDROCHLORIDE]	1.1	4.4	67	1.1	22	67	280	280	1670	1110	110	110	4.4	22	67	280	MIC [17]: 1110 µM; MIC [18]: 1110 µM; MIC [19]: 560 µM; MIC [20]: 140 µM; MIC [21]: 140 µM
CN(CCCCCN(C)c1ccc(C(=N)N)cc1)c1ccc(C(=N)N)cc1	3.9 (≈ 1.43 µg/mL)	19.5 (≈ 7.15 µg/mL)	98 (≈ 35.9 µg/mL)	59 (≈ 21.6 µg/mL)	59 (≈ 21.6 µg/mL)	120 (≈ 44 µg/mL)	9780 (≈ 3580 µg/mL)	9780 (≈ 3580 µg/mL)	> 19600	> 19600	120 (≈ 44 µg/mL)	120 (≈ 44 µg/mL)	20 (≈ 7.33 µg/mL)	9780 (≈ 3580 µg/mL)	120 (≈ 44 µg/mL)	240 (≈ 88 µg/mL)	
COc1cc(C(=N)N)cc(OC)c1OCCN(CCOc1c(OC)cc(C(=N)N)cc1OC)S(=O)(=O)c1ccccc1	2.8 (≈ 1.68 µg/mL)	7 (≈ 4.21 µg/mL)	70 (≈ 42.1 µg/mL)	88 (≈ 52.9 µg/mL)	70 (≈ 42.1 µg/mL)	70 (≈ 42.1 µg/mL)	7040 (≈ 4240 µg/mL)	7040 (≈ 4240 µg/mL)	7040 (≈ 4240 µg/mL)	7040 (≈ 4240 µg/mL)	7040 (≈ 4240 µg/mL)	7040 (≈ 4240 µg/mL)	7040 (≈ 4240 µg/mL)	7040 (≈ 4240 µg/mL)	7040 (≈ 4240 µg/mL)	7040 (≈ 4240 µg/mL)	
COc1cc(C(=N)N)cc(OC)c1OCCCCCOc1c(OC)cc(C(=N)N)cc1OC	3.5 (≈ 1.61 µg/mL)	18 (≈ 8.29 µg/mL)	89 (≈ 41 µg/mL)	110 (≈ 50.7 µg/mL)	54 (≈ 24.9 µg/mL)	54 (≈ 24.9 µg/mL)	220 (≈ 101 µg/mL)	220 (≈ 101 µg/mL)	4460 (≈ 2050 µg/mL)	1780 (≈ 820 µg/mL)	890 (≈ 410 µg/mL)	1780 (≈ 820 µg/mL)	890 (≈ 410 µg/mL)	8920 (≈ 4110 µg/mL)	110 (≈ 50.7 µg/mL)	4460 (≈ 2050 µg/mL)	
COc1cc(C(=N)N)cc(OC)c1OCCN(CCOc1c(OC)cc(C(=N)N)cc1OC)S(=O)(=O)c1ccc(N)cc1	38 (≈ 23.4 µg/mL)	64 (≈ 39.5 µg/mL)	320 (≈ 197 µg/mL)	320 (≈ 197 µg/mL)	320 (≈ 197 µg/mL)	320 (≈ 197 µg/mL)	6410 (≈ 3950 µg/mL)	6410 (≈ 3950 µg/mL)	6410 (≈ 3950 µg/mL)	6410 (≈ 3950 µg/mL)	> 12800	> 12800	> 12800	> 12800		> 12800	
N=C(N)c1ccc(NCCOCCNc2ccc(C(=N)N)cc2)cc1	24 (≈ 8.17 µg/mL)	71 (≈ 24.2 µg/mL)	590 (≈ 201 µg/mL)	590 (≈ 201 µg/mL)	590 (≈ 201 µg/mL)	590 (≈ 201 µg/mL)	2370 (≈ 807 µg/mL)	11800 (≈ 4030 µg/mL)	> 23700	> 23700	5920 (≈ 2020 µg/mL)	5920 (≈ 2020 µg/mL)	71 (≈ 24.2 µg/mL)	5920 (≈ 2020 µg/mL)	5920 (≈ 2020 µg/mL)	11800 (≈ 4030 µg/mL)	
N=C(N)c1ccc(OCCN(CCOc2ccc(C(=N)N)cc2)S(=O)(=O)c2ccccc2)cc1	100 (≈ 48.2 µg/mL)	16 (≈ 7.71 µg/mL)	82 (≈ 39.5 µg/mL)	16 (≈ 7.71 µg/mL)	49 (≈ 23.6 µg/mL)	49 (≈ 23.6 µg/mL)	210 (≈ 101 µg/mL)	210 (≈ 101 µg/mL)	1640 (≈ 790 µg/mL)	1640 (≈ 790 µg/mL)	210 (≈ 101 µg/mL)	210 (≈ 101 µg/mL)	100 (≈ 48.2 µg/mL)	8220 (≈ 3960 µg/mL)	10 (≈ 4.82 µg/mL)	210 (≈ 101 µg/mL)	
COc1cc(C(=N)N)ccc1OCCN(CCOc1ccc(C(=N)N)cc1OC)S(=O)(=O)c1ccccc1	15 (≈ 8.12 µg/mL)	42 (≈ 22.7 µg/mL)	42 (≈ 22.7 µg/mL)	42 (≈ 22.7 µg/mL)	42 (≈ 22.7 µg/mL)	42 (≈ 22.7 µg/mL)	370 (≈ 200 µg/mL)	740 (≈ 401 µg/mL)	7380 (≈ 4000 µg/mL)	7380 (≈ 4000 µg/mL)	92 (≈ 49.8 µg/mL)	370 (≈ 200 µg/mL)	370 (≈ 200 µg/mL)	7380 (≈ 4000 µg/mL)	180 (≈ 97.5 µg/mL)	180 (≈ 97.5 µg/mL)	
N=C(N)c1ccc(OCCSCCOc2ccc(C(=N)N)cc2)cc1	4.6 (≈ 1.65 µg/mL)	23 (≈ 8.24 µg/mL)	140 (≈ 50.2 µg/mL)	69.5 (≈ 24.9 µg/mL)	69.5 (≈ 24.9 µg/mL)	140 (≈ 50.2 µg/mL)	140 (≈ 50.2 µg/mL)	580 (≈ 208 µg/mL)	2320 (≈ 832 µg/mL)	1740 (≈ 624 µg/mL)	140 (≈ 50.2 µg/mL)	140 (≈ 50.2 µg/mL)	23 (≈ 8.24 µg/mL)	70 (≈ 25.1 µg/mL)	70 (≈ 25.1 µg/mL)	290 (≈ 104 µg/mL)	MIC [17]: 1160 µM (≈ 416 µg/mL); MIC [18]: 2320 µM (≈ 832 µg/mL); MIC [19]: 290 µM (≈ 104 µg/mL); MIC [20]: 140 µM (≈ 50.2 µg/mL); MIC [21]: 290 µM (≈ 104 µg/mL)
